These results are taken from patent publication US20040063686A1, “Carboxamide compounds and their use as antagonists of a human 11cby receptor” (priority 2000, published 2004).

T1 sequence (Q99705 whole entry): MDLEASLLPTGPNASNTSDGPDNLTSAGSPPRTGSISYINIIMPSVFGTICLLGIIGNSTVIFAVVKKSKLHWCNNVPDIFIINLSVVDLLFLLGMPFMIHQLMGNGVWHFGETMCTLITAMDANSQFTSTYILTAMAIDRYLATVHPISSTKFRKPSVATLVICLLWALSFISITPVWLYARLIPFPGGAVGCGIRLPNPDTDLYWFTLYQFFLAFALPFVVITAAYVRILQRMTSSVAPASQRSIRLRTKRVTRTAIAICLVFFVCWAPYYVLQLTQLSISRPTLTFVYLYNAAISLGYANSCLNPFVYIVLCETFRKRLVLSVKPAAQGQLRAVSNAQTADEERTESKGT

One experiment addresses T1, 11CBy receptors (Homo sapiens, UniProt Q99705).
T1 construct: expressed in transfected cells; washed membranes
Description: Radioligand binding assay, [125I]-Melanin Concentrating Hormone competition on membranes from HEK293 cells stably expressing 11CBy receptors. To be noted: [125I]-MCH 0.22 nM, 45 min at 37° C., pH 7.4, pKi calculated from IC50. As to the method: The activity of the compounds used in this invention may be assessed by competitive binding assays to 11CBy receptors, as follows:
Radioligand Binding Studies
Radioligand binding assays were carried out on well washed membranes from HEK293 cells stably expressing 11CBy receptors. […] Non-specific binding was defined using 0.1 mM Melanin Concentrating Hormone (obtained from Bachem). The test compounds were added at concentrations between […] and 10 pM in 10 concentration steps. Following incubation, the reaction was stopped by filtration through GF/B filters and washed with 4×1 ml of ice-cold 50 mM Tris buffer. Microscint 20 (Packard) was added to the filters and the radioactivity measured using a Packard TopCount.
Bound cpm in the presence of test compound was expressed as a fraction of the bound cpm in the absence of test compound and plotted against the concentration of compound. From this an IC50 was determined from which the pKi was calculated.
As to “Biphenyl-4-carboxylic acid [4-((R)-diethylamino-hydroxy-propoxy)-3-methoxy-phenyl]-amide [Example G1]”, the pKi range is given as 7.1-7.4.

Staying with this experiment, now noted: [125I]-MCH 0.22 nM, 45 min at 37° C., pH 7.4, pKi calculated from IC50, read-out: pKi range (converted).
In the case of `CCN(CC)CCOc1ccc(N(C)C(=O)c2ccc(-c3ccccc3)cc2)cc1OC` [Example E9, Biphenyl-4-carboxylic acid [4-(2-diethylamino-ethoxy)-3-methoxy-phenyl]-methyl-amide], the Ki is 15.8 to 31.6 nM.

`COc1cc(NC(=O)c2ccc(C3CCCCC3)cc2)ccc1N1CCN(C)CC1` [Example H1, 4-Cyclohexyl-N-[3-methoxy-4-(4-methyl-piperazin-1-yl)-phenyl]-benzamide]: the Ki is 39.8 to 79.4 nM.

In the case of `COc1cc(NC(=O)c2ccc(-c3ccccc3)nc2)ccc1OCCN(C(C)C)C(C)C` [Example F4], the Ki was 39.8 to 79.4 nM.

In the case of `COc1cc(NC(=O)c2ccc(-c3ccccc3)cc2Cl)ccc1OCCN(C(C)C)C(C)C` [Example C8], the Ki was 39.8 to 79.4 nM.

With `COc1cc(NC(=O)c2ccc(C3CCCCC3)cc2)ccc1OC[C@@H]1CCCN1C` [Example A48], the Ki is 15.8 to 31.6 nM.
